Measured values taken from patent US9763884B2, “Drug delivery system” (EB IP HYBRITABS B.V., priority 2011, dated 2017).

Key:
[1] = Clinical cross-over pharmacokinetic study of F1 versus F2 (testosterone and sildenafil citrate) in healthy pre-menopausal women; conditions: female, human, plasma, other: sublingual, 0.5 mg
Protocol: Sildenafil (S) and N-desmethyl-sildenafil (NDS) concentrations were determined by HPLC-MS/MS as follows.
The human plasma samples were vortex mixed and 0.5 mL of the sample was transferred into a clean test tube to which 20 μL of an Internal Standard solution (10 ng/mL) in methanol was added and vortex mixed. Then, 4 mL Methyl-Tertiary-Butyl-Ether (MTBE) was added, tubes were capped and shaken for 10 minutes and then centrifuged for 5 minutes at 2000 rcf. The tubes were placed into a snap freezer and the bottom water layer was frozen. The supernatant was transferred into a clean tube and evaporated to dryness under a stream of nitrogen. […]
Cmax and Tmax were read from the observed values. The half life was calculated from the unweighted linear regression of the log transformed data determined at the elimination phase of the pharmacokinetic profile. The Area Under Curve (O-last) was determined as the area under the concentration versus time curve from the first time point to last time point with measurable drug concentration with a linear/log-linear trapezoidal model. The AUC (0-∞) was determined by extrapolation from the time point where the last measurable drug concentration (Cp) occurred to time infinity. […] Tlag was determined as the first time point with a measurable concentration.
The calculated concentrations were used for PK calculations.

[2] = Pharmacokinetics of three single doses of sublingual testosterone solution in healthy premenopausal women; conditions: for AUC(0-t) / Cmax / MRT / Tmax / half-life / bioavailability: female, human, in vivo; for AUC(0-t) / Cmax / MRT / Tmax / half-life: serum; for AUC(0-t) / Cmax: geometric mean (% CV); for MRT / Tmax / half-life: mean ± SD
Protocol: All 16 subjects received each investigational drug dose once in random order. Wash-out between treatments was at least 48 h. Subjects had serial blood samples drawn via an intravenous catheter. Pharmacokinetic parameters were monitored at baseline and (at 2, 4, 6, 8, 10, 20, 30, 60, 90, 120, 180, 230 min) after dosing.
Blood samples in the placebo condition were only measured at −5, 10, 60 and 230 min.
For the placebo solution 0.50 ml was administered.
The different doses were prepared by an unblinded research associate and administered by blinded research associates. The blinded research associate administered the solution into the subjects mouth under the tongue, the subjects were instructed to keep the solution sublingually for 1 minute while moving the tongue slightly to optimize absorption. After 1 minute the blinded research associate instructed the subject to swallow the solution.
E2 was analysed by a chemiluminescence immunoassay (Siemens), the LLOQ was […]. 3α-diol-G was measured by ELISA (BioVendor), the LLOQ was 0.25 ng/mL. SHBG was measured by an electrochemiluminescent assay (ECLIA, Roche). Albumin was measured by Roche Bromocresol Green (BCG) analysis (Roche).
The pharmacokinetic parameters were analyzed using the WinNonlin software (version 5.1). Pharmacokinetic parameters including area under the curve, t=0 till t=230 min (AUC0-230), maximum concentration (Cmax) and time to maximum concentration (tmax) were calculated based on actual and baseline corrected individual concentration time curves. AUCs were estimated using the linear trapezoidal rule. Individual pharmacokinetic parameters AUC0-230 and Cmax and corresponding dose normalized parameters were log transformed and analyzed using a mixed maximum likelihood analysis (PROC MIXED in SAS, version 9.1) including subject as a random factor and drug as a fixed effect factor. Contrasts were made of the least square means to compare the different doses. Tmax was analyzed using a Wilcoxon rank sum test. This was based on the planned times corresponding to the actual tmax to prevent bias in analysis results based on differences in sampling times.
Subsequently, we divided the subjects into two subgroups, on the basis of their baseline SHBG levels (mean of placebo, 0.25, 0.50, 0.75 mg predose levels). This subdivision was based on a median split of the baseline SHBG levels. One group (N=8) with low SHBG levels (≦63 nmol/L) and the other group (N=8) with relatively high SHBG levels (>63 nmol/L).

[3] = general statement in the discussion, no source given; cited from earlier work
[4] = 0.25 mg, free testosterone, 0.25 mg sublingual
[5] = 0.25 mg, total testosterone, 0.25 mg sublingual
[6] = 0.5 mg, free testosterone, 0.50 mg sublingual
[7] = 0.5 mg, total testosterone, 0.50 mg sublingual
[8] = 0.75 mg, free testosterone, 0.75 mg sublingual
[9] = 0.75 mg, total testosterone, 0.75 mg sublingual
[10] = subjects with high SHBG, 0.25 mg
[11] = subjects with high SHBG, 0.50 mg
[12] = subjects with high SHBG, 0.75 mg
[13] = subjects with low SHBG, 0.25 mg, at 20 min after dosing
[14] = subjects with low SHBG, 0.50 mg, at 20 min after dosing
[15] = subjects with low SHBG, 0.75 mg, at 20 min after dosing

**Q.** With `C[C@]12CC[C@H]3[C@@H](CCC4=CC(=O)CC[C@@]43C)[C@@H]1CC[C@@H]2O` [Testosterone, testosterone] as the compound, how does the Tmax [1] read?
**A.** 10 to 20 min

**Q.** And the half-life [1]?
**A.** ~37 min

**Q.** And the “time at which serum free and total testosterone levels peaked” value ([2]; all three doses (0.25, 0.50, 0.75 mg) sublingual)?
**A.** 15 min

**Q.** What about the AUC(0-t) ([2]; 0.25 mg, Baseline corrected AUC 0-230, free testosterone, 0.25 mg sublingual) of the same compound?
**A.** 0.0158 ng·h/mL

**Q.** What about the AUC(0-t) ([2]; 0.25 mg, Baseline corrected AUC 0-230, total testosterone, 0.25 mg sublingual) of the same compound?
**A.** 3.23 ng·h/mL

**Q.** And the Cmax [2, 4]?
**A.** 0.021 ng/mL

**Q.** What about the Cmax [2, 5] of the same compound?
**A.** 3.79 ng/mL

**Q.** What about the MRT [2, 4] of the same compound?
**A.** 52.6 min

**Q.** And the MRT [2, 5]?
**A.** 57.7 min

**Q.** What about the Tmax [2, 4] of the same compound?
**A.** 15.6 min

**Q.** And the Tmax [2, 5]?
**A.** 15.6 min

**Q.** And the half-life ([2]; 0.25 mg, t1/2, free testosterone, 0.25 mg sublingual)?
**A.** 42.3 ± 14.6 min

**Q.** And the half-life ([2]; 0.25 mg, t1/2, total testosterone, 0.25 mg sublingual)?
**A.** 49.8 ± 16 min

**Q.** What about the bioavailability ([2]; 0.5 mg) of the same compound?
**A.** 69%

**Q.** What about the AUC(0-t) ([2]; 0.5 mg, Baseline corrected AUC 0-230, free testosterone, 0.50 mg sublingual) of the same compound?
**A.** 0.0252 ng·h/mL

**Q.** And the AUC(0-t) ([2]; 0.5 mg, Baseline corrected AUC 0-230, total testosterone, 0.50 mg sublingual)?
**A.** 4.43 ng·h/mL

**Q.** What about the Cmax [2, 6] of the same compound?
**A.** 0.032 ng/mL

**Q.** What about the Cmax [2, 7] of the same compound?
**A.** 5.31 ng/mL

**Q.** And the MRT [2, 6]?
**A.** 57.1 min

**Q.** What about the MRT [2, 7] of the same compound?
**A.** 55.6 min

**Q.** What about the Tmax [2, 6] of the same compound?
**A.** 14.4 min

**Q.** What about the Tmax [2, 7] of the same compound?
**A.** 15.1 min

**Q.** And the half-life ([2]; 0.5 mg, t1/2, free testosterone, 0.50 mg sublingual)?
**A.** 55.7 ± 27.5 min

**Q.** What about the half-life ([2]; 0.5 mg, t1/2, total testosterone, 0.50 mg sublingual) of the same compound?
**A.** 49.7 ± 22.4 min

**Q.** And the bioavailability ([2]; 0.75 mg)?
**A.** 58%

**Q.** And the AUC(0-t) ([2]; 0.75 mg, Baseline corrected AUC 0-230, free testosterone, 0.75 mg sublingual)?
**A.** 0.0312 ng·h/mL

**Q.** What about the AUC(0-t) ([2]; 0.75 mg, Baseline corrected AUC 0-230, total testosterone, 0.75 mg sublingual) of the same compound?
**A.** 5.62 ng·h/mL

**Q.** What about the Cmax [2, 8] of the same compound?
**A.** 0.043 ng/mL

**Q.** What about the Cmax [2, 9] of the same compound?
**A.** 6.73 ng/mL

**Q.** And the MRT [2, 8]?
**A.** 51.4 min

**Q.** And the MRT [2, 9]?
**A.** 59.5 min

**Q.** What about the Tmax [2, 8] of the same compound?
**A.** 12.8 min

**Q.** And the Tmax [2, 9]?
**A.** 14.3 min

**Q.** What about the half-life ([2]; 0.75 mg, t1/2, free testosterone, 0.75 mg sublingual) of the same compound?
**A.** 51.1 ± 26.4 min

**Q.** And the half-life ([2]; 0.75 mg, t1/2, total testosterone, 0.75 mg sublingual)?
**A.** 58.5 ± 24.6 min

**Q.** What about the “influence on 3α-diol-G concentrations” value ([2]; increasing doses, t=0, 60, 120, 230) of the same compound?
**A.** does not seem to influence

**Q.** What about the “maximum levels of free testosterone” value [2, 10] of the same compound?
**A.** 0.018 ng/mL

**Q.** And the “maximum levels of total testosterone” value [2, 10]?
**A.** 5.00 ng/mL

**Q.** What about the “maximum levels of free testosterone” value [2, 11] of the same compound?
**A.** 0.026 ng/mL

**Q.** What about the “maximum levels of total testosterone” value [2, 11] of the same compound?
**A.** 7.08 ng/mL

**Q.** And the “maximum levels of free testosterone” value [2, 12]?
**A.** 0.034 ng/mL

**Q.** What about the “maximum levels of total testosterone” value [2, 12] of the same compound?
**A.** 9.04 ng/mL

**Q.** What about the “maximum levels of free testosterone” value [2, 13] of the same compound?
**A.** 0.026 ng/mL

**Q.** And the “maximum levels of total testosterone” value [2, 13]?
**A.** 3.18 ng/mL

**Q.** What about the “maximum levels of free testosterone” value [2, 14] of the same compound?
**A.** 0.039 ng/mL

**Q.** And the “maximum levels of total testosterone” value [2, 14]?
**A.** 3.93 ng/mL

**Q.** What about the “maximum levels of free testosterone” value [2, 15] of the same compound?
**A.** 0.048 ng/mL

**Q.** What about the “maximum levels of total testosterone” value [2, 15] of the same compound?
**A.** 4.73 ng/mL

**Q.** And the tolerability ([2]; three doses sublingual testosterone)?
**A.** well tolerated

**Q.** What about the “T1/2 of free testosterone (rapidly metabolized)” value [3] of the same compound?
**A.** 10 min
